Measurements published in patent publication EP0336326A2, “3-Aminodihydrothiophene-2-one peptide derivatives, processes for the preparation and therapeutic use” (POLI INDUSTRIA CHIMICA S.p.A., priority 1988, dated 1989).
Read-outs that look alike come from different tables or passages of the source.

Key:
[1] = system: CCl4intoxication; assay: hepatoprotective activity: CCl4 intoxication test; format: in vivo; conditions: ip, rat, 0.25 mM/kg i.p.
Description: The hepatoprotective activity was determined by the CCl4intoxication test in the rat (E. C. Ferreyra et al., Toxic. Appl. Pharmacol., 27, 558, 1974).

[2] = system: hystamine shock; assay: antibronchospastic activity: histamine shock test; format: in vivo; conditions: Cavia porcellus, ip; guinea pig; 0.25 mM/kg i.p.; compared with the basal values; read-out: increase resistance times against shock
Description: The antibronchospastic activity of the compounds of the present invention was evaluated by the hystamine shock test in guinea pig (P. C. Braga et al., Min. Pneumol., 23, 447, 1984).

[3] = system: 4% mucin suspension; assay: in vitro mucolytic activity test with a 4% mucin suspension; format: biochemical; conditions: equimolar concentrations (0.00625 M), after hydrolysis with rat serum; 6250 µM
[4] = system: Bordetella pertussis induced edema; assay: antiinflammatory activity: Bordetella pertussis induced edema test; format: in vivo; conditions: in Rattus norvegicus, po, 24 h, read-out: reduce the edema after 24 hours
Description: The antiinflammatory activity was evaluated by the test of Bordetella pertussis induced edema in the rat (F. Capasso, Agents and Actions, 11, 741, 1981).

[5] = mucolytic-expectorant activity: test of fluorescein elimination from the respiratory tract; format: in vivo; conditions: po; 0.5 mM/kg orally; in comparison with the controls; read-out: increase in the dye excretion
[6] = system: elastase-induced emphysema; assay: antiemphysema activity: pancreatic elastase induced emphysema, mean linear intercept (MLI) morphometry; format: in vivo; conditions: hamster; 0.25 mM/kg per os, during 4 weeks
Description: The compounds of the present invention also display an interesting antiemphysema activity in the hamster (P.J. Stone et al., Amer. Rev. Respir. Dis., 124, 56, 1981). Emphysema induced by pancreatic elastase is morphometrically measured by evaluating, in µm, the mean linear intercept (MLI) (J. Kleinerman et al., Amer. Rev. Respir. Dis., 121, 381, 1980).

[7] = in comparison with intoxicated controls, read-out: reduce serum GOT
[8] = in comparison with the intoxicated controls, read-out: reduce serum GPT

Compound | inhibition in vivo at 250 µM, 250 µmol/kg [1, 7] [%] | inhibition in vivo at 250 µM, 250 µmol/kg [1, 8] [%] | change in vivo at 250 µM, 250 µmol/kg [2] [%] | reductions in viscosity [3] [%] | inhibition in vivo at 500 µM, 500 µmol/kg [4] [%] | change in vivo at 500 µM, 500 µmol/kg [5] [%] | reduce the MLI increase in elastase-induced emphysema [6] [%]
CC(S)C(=O)NCC(=O)O (stereo not shown) [tiopronin, reference compound] | 42.2 | 39.8 | 166 | 11.5 | 28.6 | 55.8 | 
CC(=O)N[C@@H](CS)C(=O)N[C@H]1CCSC1=O [Compound IV, L-3-[(N-acetylcysteinyl)]aminodihydrothiophene-2-one] | 52.7 | 48.7 | 180 | 12.8 | 36.7 | 68.5 | 31.8
CC(SC(=O)c1cccs1)C(=O)NCC(=O)NC1CCSC1=O (racemic) [Compound III] | 54.7 | 54.1 | 186 | 13.1 | 41.8 | 71.3 | 32.7
CC(SC(=O)c1cccs1)C(=O)NCC(=O)N1CSC[C@H]1C(=O)NC1CCSC1=O (stereo partly drawn) [Compound VIII, 3-{L-3-[(2-thenoylthiopropionyl)glycyl]thiazolidin-4-carbonyl}aminodihydrothiophene-2-one] | 60.1 | 54.1 | 188 | 13.2 | 38.1 | 70.8 | 35.4
CC(S)C(=O)NCC(=O)N1CSC[C@H]1C(=O)NC1CCSC1=O (stereo partly drawn) [Compound VI, 3-{L-3-[(2-thiolpropionyl)glycyl]thiazolidin-4-carbonyl} aminodihydrothiophene-2-one] | 58.5 | 52.8 | 191 | 13.4 | 38.7 | 74.1 | 35.6
CC(S)C(=O)NCC(=O)N1CSC[C@H]1C(=O)O (stereo partly drawn) [Compound VII, L-3-[(2-thiolpropionyl)glycyl]thiazolidin-4-carboxylic acid] | 59.3 | 51.9 | 188 | 13.6 | 37.9 | 71.9 | 34.9
CC(=O)N[C@@H](CS)C(=O)O [N-acetyl-cysteine, reference compound] | 39.9 | 37.8 | 168 | 10.8 | 23.2 | 45.6 | 
CC(=O)N[C@@H](CSC(=O)c1cccs1)C(=O)NC1CCSC1=O (stereo partly drawn) [Compound V, 3-(N-acetyl-S-(2-thenoyl)-cysteinyl)aminodihydrothiophene-2-one] | 56.1 | 47.6 | 181 | 12.4 | 35.8 | 67.6 | 32.7
CC(S)C(=O)NCC(=O)NC1CCSC1=O (stereo not shown) [Compound II, 3-[(2-thiolpropionyl)glycyl]aminodihydrothiophene-2-one] | 55.8 | 52.3 | 190 | 13.4 | 42.1 | 72 | 30.6
